Results taken from PubChem BioAssay (NCI).
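Following 48 hours of exposure in 96-well plates, responses at five concentrations were used to interpolate endpoints linearly. The concentration for 50% growth inhibition is given as GI50. TGI: total growth inhibition.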

Key:
Assay in all cases: DTP human tumour cell line panel, 48 h
CCRF-CEM leukemia = system: CCRF-CEM leukemia
TK-10 renal = system: TK-10 renal
ACHN renal = system: ACHN renal
SR leukemia = system: SR leukemia
KM12 colon = system: KM12 colon
COLO 205 colon = system: COLO 205 colon
NCI-H23 lung = system: NCI-H23 lung
SK-OV-3 ovarian = system: SK-OV-3 ovarian
HCT-116 colon = system: HCT-116 colon
SK-MEL-5 melanoma = system: SK-MEL-5 melanoma
SF-268 CNS = system: SF-268 CNS
DU-145 prostate = system: DU-145 prostate
MDA-MB-435 = system: MDA-MB-435
UACC-62 melanoma = system: UACC-62 melanoma
786-0 renal = system: 786-0 renal
MCF7 breast = system: MCF7 breast
MALME-3M melanoma = system: MALME-3M melanoma
K-562 leukemia = system: K-562 leukemia
HOP-62 NSCLC = system: HOP-62 NSCLC
OVCAR-3 ovarian = system: OVCAR-3 ovarian
HCC-2998 colon = system: HCC-2998 colon
CAKI-1 renal = system: CAKI-1 renal
SF-295 CNS = system: SF-295 CNS
HL-60(TB) leukemia = system: HL-60(TB) leukemia
NCI-H460 lung = system: NCI-H460 lung
NCI-H522 lung = system: NCI-H522 lung
BT-549 breast = system: BT-549 breast
EKVX NSCLC = system: EKVX NSCLC
MOLT-4 leukemia = system: MOLT-4 leukemia

In the case of `COC(=O)c1ccc(-n2cc(CCCN(CCNc3ccnc4cc(Cl)ccc34)C(=O)CCC(=O)O[C@@H]3O[C@@H]4OC5(C)CC[C@H]6[C@H](C)CC[C@@H]([C@H]3C)[C@@]46OO5)nn2)cc1`, the GI50 (CCRF-CEM leukemia) is reported as 506 nM, the TGI (CCRF-CEM leukemia) is reported as over 10.8 µM and the GI50 (TK-10 renal) is reported as over 10.8 µM. The TGI (TK-10 renal) was over 10.8 µM, the GI50 (ACHN renal) was 1870 nM and the TGI (ACHN renal) was over 10.8 µM. For the same compound, the GI50 (SR leukemia) was 314 nM, the TGI (SR leukemia) was 4.09 µM and the GI50 (KM12 colon) was 319 nM. It also gave a TGI (KM12 colon) of over 10.8 µM, a GI50 (COLO 205 colon) of 355 nM and a TGI (COLO 205 colon) of over 10.8 µM. The GI50 (NCI-H23 lung) was 633 nM, the TGI (NCI-H23 lung) was over 10.8 µM and the GI50 (SK-OV-3 ovarian) was over 10.8 µM. The TGI (SK-OV-3 ovarian) was over 10.8 µM, the GI50 (HCT-116 colon) was 155 nM and the TGI (HCT-116 colon) was over 10.8 µM. For the same compound, the GI50 (SK-MEL-5 melanoma) was 755 nM, the TGI (SK-MEL-5 melanoma) was 2410 nM and the GI50 (SF-268 CNS) was 2580 nM. The TGI (SF-268 CNS) was over 10.8 µM, the GI50 (DU-145 prostate) was over 10.8 µM and the TGI (DU-145 prostate) was over 10.8 µM. The GI50 (MDA-MB-435) was 508 nM, the TGI (MDA-MB-435) was 3.63 µM and the GI50 (UACC-62 melanoma) was 720 nM. The TGI (UACC-62 melanoma) was over 10.8 µM, the GI50 (786-0 renal) was 3.74 µM and the TGI (786-0 renal) was over 10.8 µM. It also gave a GI50 (MCF7 breast) of 444 nM, a TGI (MCF7 breast) of 2320 nM and a GI50 (MALME-3M melanoma) of 1250 nM. It also gave a TGI (MALME-3M melanoma) of 2750 nM, a GI50 (K-562 leukemia) of 247 nM and a TGI (K-562 leukemia) of 7.23 µM. The GI50 (HOP-62 NSCLC) was over 10.8 µM, the TGI (HOP-62 NSCLC) was over 10.8 µM and the GI50 (OVCAR-3 ovarian) was 397 nM. For the same compound, the TGI (OVCAR-3 ovarian) was over 10.8 µM, the GI50 (HCC-2998 colon) was 2000 nM and the TGI (HCC-2998 colon) was over 10.8 µM. It also gave a GI50 (CAKI-1 renal) of 6.83 µM, a TGI (CAKI-1 renal) of over 10.8 µM and a GI50 (SF-295 CNS) of 3.24 µM. It also gave a TGI (SF-295 CNS) of over 10.8 µM, a GI50 (HL-60(TB) leukemia) of 334 nM and a TGI (HL-60(TB) leukemia) of 1600 nM. For the same compound, the GI50 (NCI-H460 lung) was 6.15 µM, the TGI (NCI-H460 lung) was over 10.8 µM and the GI50 (NCI-H522 lung) was 442 nM. The TGI (NCI-H522 lung) was over 10.8 µM, the GI50 (BT-549 breast) was 541 nM and the TGI (BT-549 breast) was over 10.8 µM. For the same compound, the GI50 (EKVX NSCLC) was 827 nM, the TGI (EKVX NSCLC) was over 10.8 µM and the GI50 (MOLT-4 leukemia) was 216 nM. The TGI (MOLT-4 leukemia) was 4.45 µM.
